Laboratory results taken from US8658416B2, “Toxin-eating bacteria and bioremediation” (priority 2008, dated 2014).

Columns and labels:
[1] = test system: clonal bacterial isolates from 11 diverse soils; assay type: cell-based, soil bacteria; conditions: antibiotic as sole carbon source at 1 g/L in SCS media pH 5.5, 22° C., positive growth at least 10^8 cells/mL
Experimental: The pH was adjusted to 5.5 using HCl, and the media was sterilized through a 0.22 μm filter. Solid medium was prepared by adding 15 g agar per liter of liquid SCS media followed by autoclaving before adding antibiotics.
Clonal isolates from the liquid cultures were obtained by plating cultures out on SCS-antibiotic agar medium and resulting single colonies were picked and re-streaked on corresponding plates. Three colonies each were then inoculated into fresh SCS-antibiotic liquid media (5 mL) to confirm clonal phenotype. Final culture growth was recorded after 1 month incubation without shaking at 22° C. and cultures with at least 10^8 cells/mL were assayed as positive growth.
All antibiotics used were purchased from Sigma-Aldrich at the highest purities available.

[2] = Un-inoculated media controls monitored by HPLC (antibiotic stability in SCS medium); assay type: physicochemical; conditions: 20 or 28 days, HPLC at 214 nm
Experimental: Representative isolates capable of growth on penicillin and carbenicillin as sole carbon source were selected for analysis of antibiotic removal from the growth media by High Performance Liquid Chromatography (HPLC). 2 μL of these cultures were re-inoculated into fresh SCS-antibiotic medium (5 mL) and allowed to grow for 28 days. Samples of the cultures and un-inoculated media controls were taken at regular intervals throughout the 28 day period and the catabolism of penicillin and carbenicillin was monitored at 214 nm by HPLC of filtered media from samples using a Hewlett Packard 1090 Liquid Chromatograph and a Vydac C-18 column. HPLC was performed at a flow rate of 0.3 mL/min with an acetonitrile gradient going from 5% to 65% in 30 minutes in the presence of 0.1% trifluoroacetic acid.

Row | Structure (SMILES) | soils from which clonal isolates capable of subsisting on the antibiotic were obtained [1] | antibiotic peak in the un-inoculated control over the same time course [2]
1 | CC1(C)S[C@@H]2[C@H](NC(=O)C(C(=O)O)c3ccccc3)C(=O)N2[C@H]1C(=O)O (stereo partly drawn) [carbenicillin, Carbenicillin] | all the soils tested | remained relatively unchanged
2 | Cc1onc(-c2c(Cl)cccc2Cl)c1C(=O)N[C@@H]1C(=O)N2[C@@H]1SC(C)(C)[C@@H]2C(=O)O [dicloxacillin, Dicloxacillin] | 9 out of 11 soils | –
3 | CCn1cc(C(=O)O)c(=O)c2ccc(C)nc21 [nalidixic acid, Nalidixic acid] | a majority of the soils | –
4 | CC1(C)S[C@@H]2[C@H](NC(=O)Cc3ccccc3)C(=O)N2[C@H]1C(=O)O [penicillin, Penicillin G] | all the soils tested | remained the dominant peak
